Laboratory results as given in patent US20070244200A1, “Method for triggering angiogenic response” (priority 2006, published 2007).
“And” between values parts separate entries of the source, which are not always exact repeats. Identical values can stand only once.

System: rabbit aortic endothelial cells (RAEC)
Test: Cord formation on Matrigel (in vitro angiogenesis assay)
Format: cell-based
Conditions: 18-24 h; for Percent Increase in Cord length, Set I / Percent Increase in Cord length, Set II / Percent Increase in Cord length, Set III: individual picture scores; for Percent Increase in Cord length, Mean: mean of 18 scores
Description: In carrying this invention, materials needed in this example include commercially available items as follows: a 96 Well Plate, for example, flat bottom 96 well plate (Falcon 353072); Media-BM-2 (Clonetics CC-3162), DMEM (Gibco Cat#11960044); Matrigel-Beckton Dickinson (Cat#40234); Cells; HUVEC (2×10^6/ml) in EBM-2 in EBM-2; and Image Analysis-Image-Pro Plus In this example, the assay is performed under hood is, a Laminar Flow Hood. Frozen Matrigel (Beckton Dickinson 40234) is placed overnight on ice to thaw. Then, a concentration of matrigel is adjusted to 10 mg/ml using DMEM media. An ice cold 96 well plate is then placed on ice in a flat dish. Using an ice cold tip, gently layer 60 μl of matrigel (10 mg/ml; kept on ice) in each well. Gently tap the plate so that matrigel is evenly distributed in each well. The assay thereafter involves the following steps and protocols of: Removing the ice under the plate and incubate the plate for 15 min at room temperature; transfer the plate to a 37° C. incubator for at least 30 min for the Matrigel to polymerize; prepare methanandamide at 2X the desired concentration in culture media; harvest RAEC (rabbit aortic endothelial cells) in culture media and adjust the cell density to 2×10^5/ml; mix 500 μl of drug with 500 μl of cell suspension and place 200 μl of this suspension in duplicate wells on polymerized matrigel (being cautious to not touch matrigel with the tip and to dispense cells very gently and slowly on the matrigel to avoid damage to matrigel layer); incubate the compound concentration in a 37° C. humidified incubator for 18-24 h observe condition of cords under a microscope.; take at least three pictures (10 X) from different fields from each well (or six pictures from duplicate wells); count number of junctions and tube length (mm) from each picture using Image Pro Image Analysis System; and analyze the data.
In accordance with a preferred embodiment of the present invention, the effect of methanandamide on rabbit aortic endothelial cells (RAEC) was tested for its ability to induce cord formation on matrigel. This process entails an accepted in vitro assay for angiogenesis. The procedures involve analyses with three different concentrations of methanandamide compound and repeated the experiments three different times in duplicate. As mentioned earlier above in the protocol, the 3 pictures from each well were taken. Therefore, for each concentration (data point) we have 18 scores. The analysis entails the measure of two parameters: (1) cord length; and (2) cord junction number.
In FIG. 1, there is shown representations for eighteen (18) scores of data points for each concentration of methanandamide compound analyzed. The scores indicated for each concentration of methanandamide resulted from three different concentrations of methanandamide, i.e. 10 nM, 50 nM, and 100 nM. Three (3) pictures taken from each field or well (Six (6) pictures for duplicate wells). Each treatment or analysis was done in duplicate in 3 separate sets, i.e., Set I, Set II, and Set III. Therefore, for each concentration data point has eighteen (18) scores (3×2×3=18 data points).

Structure (SMILES): CCCCC/C=C\C/C=C\C/C=C\C/C=C\CCCC(=O)N[C@H](C)CO [Methanandamide, methyl arachidonyl ethanolamide]
- Percent Increase in Cord length, Set I (Methanandamide 10 nM): 12% (2×) and 11% and 9% and 13% and 10%
- Percent Increase in Cord length, Set II (Methanandamide 10 nM): 16% and 21% and 14% and 18% and 13% and 12%
- Percent Increase in Cord length, Set III (Methanandamide 10 nM): 14% and 10% and 17% (2×) and 13% and 15%
- Percent Increase in Cord length, Mean (Methanandamide 10 nM): 14%
- Percent Increase in Cord length, Set I (Methanandamide 50 nM): 17% and 22% and 25% and 32% (2×) and 19%
- Percent Increase in Cord length, Set II (Methanandamide 50 nM): 17% and 26% and 22% (2×) and 28% and 18%
- Percent Increase in Cord length, Set III (Methanandamide 50 nM): 34% and 25% and 30, 30, Percent (2×) and 26% and 35%
- Percent Increase in Cord length, Mean (Methanandamide 50 nM): 25%
- Percent Increase in Cord length, Set I (Methanandamide 100 nM): 45% and 42% (2×) and 39% and 47% and 40%
- Percent Increase in Cord length, Set II (Methanandamide 100 nM): 37% and 41% and 44% (2×) and 32% and 34%
- Percent Increase in Cord length, Set III (Methanandamide 100 nM): 38% and 42% and 44% and 47% and 36% and 34%
- Percent Increase in Cord length, Mean (Methanandamide 100 nM): 40%
